This is an account of results in patent US8551742B2 (priority 2007, dated 2013).

Values after ≈ are worked out from the molar mass of the structure shown.

Series [1] concerns the target Rickettsia high-affinity SAMe transport system (Rickettsia prowazekii, UniProt Q9ZE70). To be noted: Rickettsia SAMe transporter; cited from earlier work.
The target of series [2] is T1, SAMe transporter from S. cerevisiae (Saccharomyces cerevisiae, UniProt Q08986).
T1 sequence (Q08986 1-587): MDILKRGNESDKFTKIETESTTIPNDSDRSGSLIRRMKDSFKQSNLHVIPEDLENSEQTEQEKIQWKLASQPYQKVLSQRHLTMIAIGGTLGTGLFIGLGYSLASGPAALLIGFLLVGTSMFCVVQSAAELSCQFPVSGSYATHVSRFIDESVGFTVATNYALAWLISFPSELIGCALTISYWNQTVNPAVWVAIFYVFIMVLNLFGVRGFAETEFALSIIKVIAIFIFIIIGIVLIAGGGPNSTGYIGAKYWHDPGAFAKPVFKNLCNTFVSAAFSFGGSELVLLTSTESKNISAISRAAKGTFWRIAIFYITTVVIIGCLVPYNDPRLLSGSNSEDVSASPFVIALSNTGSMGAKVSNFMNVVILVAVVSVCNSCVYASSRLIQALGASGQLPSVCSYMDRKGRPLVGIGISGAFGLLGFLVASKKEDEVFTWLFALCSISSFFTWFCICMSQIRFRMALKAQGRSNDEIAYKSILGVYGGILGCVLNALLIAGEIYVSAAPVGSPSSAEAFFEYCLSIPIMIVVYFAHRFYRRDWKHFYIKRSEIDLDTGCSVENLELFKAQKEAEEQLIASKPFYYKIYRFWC
Conditions: cited from earlier work.

Series [3] deals with SAMe transporter from P. carnii. To be noted: cited from earlier work.
In series [4] the test system is SAMe transporter from rat liver. To be noted: cited from earlier work.
Series [5] deals with homocysteine synthase encoded by metY from Pseudomonas aeruginosa. The series can be described thus: Homocysteine synthase (MetY) activity assay (Yamagata, modified, DTNB detection).
Series [6] in a line: physchem. To be noted: 30 °C, water. An excerpt:
This is close to the highest concentration achievable in the assay conditions.

For series [7] the following is noted: 30° C.; cited from earlier work.
Series [8] has as its target high affinity L-methionine transporter (metD) (Escherichia coli, UniProt P28635). To be noted: very high affinity transporter in E. coli; cited from earlier work.
The subject of series [9] is lower affinity L-methionine transporter (metP). Conditions: lower affinity transporter in E. coli; cited from earlier work.
Series [10] concerns MetK. The series can be described thus: MetK mutants radioactive assay in vitro ([methyl-14C]methionine to SAMe). Type of series: biochemical, E. coli. Conditions: 5 minute reaction time; C-terminal His tagged proteins unless untagged. How it is done:
The metK gene from E. coli (Accession number AP—003499 or BAE77005) was cloned and overexpressed with either an N-terminal or a C-terminal His tag in pET28b vector. Site directed mutagenesis was performed using the C-terminal His tagged metK clone to generate the desired mutants. Expression of the mutant MetK proteins was confirmed.
The MetK mutants were purified (using the C-terminal His tag) and assayed in vitro. The wild type C-terminal His-tagged MetK protein was used as a control. The mutants were assayed using a radioactive assay. The assay conditions were as follows: • Assay Mix: • 1.0 mL 0.5 M HEPES/KOH, pH 8.0 • 0.5 mL 1.0 M KCl • 0.2 mL 1.0 M MgCl2 • 1.0 mL 100 mM ATP (disodium salt, pH 8.0 with KOH) • 0.1 mL 50 mM methionine • 0.1 mL NEN [methyl-^14C]methionine • 6.6 mL H2O • 25 mM EDTA pH 8.0 stop for assays.
45 μl of assay mix was added to an Eppendorf tube and 5 μL of enzyme (normalized data shown in Table 13. The reaction was incubated at room temperature (or 25° C.) for a desired period (1 to 10 minutes). The reaction was stopped with the addition of 150 μL of 25 mM EDTA. 100 μL of the reaction was spotted onto a 2.5 cm diameter Whatman P-81 phosphocellulose filter circle (labeled in pencil). The filters were washed with 3 L of distilled water, air-dried and placed in scintillation vials with aquasol. The emissions were counted using a window that extends from ^14C to about 0. Assay efficiency and quench levels were determined by adding a known amount of counts of pure ^14C-SAM and processing through the whole procedure. Backgrounds are typically<100 cpm (total counts ca. 10^5 cpm per reaction).

For series [11], the system named is excreted Met. To be noted: literature reference AEM 2005; cited from earlier work.
In series [12] the test system is MetK. To be noted: literature reference; cited from earlier work.
Series [13] concerns the target T2, O-succinylsulfhydrylase (Pseudomonas aeruginosa, UniProt P55218).
T2 sequence (P55218 whole entry, looked up): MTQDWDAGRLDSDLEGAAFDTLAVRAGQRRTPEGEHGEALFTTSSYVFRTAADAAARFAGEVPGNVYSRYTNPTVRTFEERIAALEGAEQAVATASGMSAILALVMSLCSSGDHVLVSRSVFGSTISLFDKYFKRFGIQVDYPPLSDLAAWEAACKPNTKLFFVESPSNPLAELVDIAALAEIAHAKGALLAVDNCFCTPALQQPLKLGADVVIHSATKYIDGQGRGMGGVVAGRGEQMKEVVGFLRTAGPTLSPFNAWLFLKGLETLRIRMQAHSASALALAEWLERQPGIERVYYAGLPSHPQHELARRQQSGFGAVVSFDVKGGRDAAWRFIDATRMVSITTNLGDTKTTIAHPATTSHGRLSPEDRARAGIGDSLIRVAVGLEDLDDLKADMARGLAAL
The series can be described thus: In-vitro assays of O-succinylsulfhydrylase. The series is classed as biochemical. The protocol:
Low methionine production of the deletion mutants transformed with metZ may be due to the limitation of sulfide in the intracellular fraction (methods of increasing sulfide concentration are provided below). This is supported by the finding that the growth of the metBC deletion strain transformed with metZ was enhanced in M9 media in the presence of 2 mM sodium sulfide. […] Through directed evolution, it is possible to develop improved O-succinylsulfhydrylases with higher sulfide affinity and also higher activity.

Where [14] appears, read: OAHS as substrate, 10 mM inhibitor.

Sequence of high affinity L-methionine transporter (metD) (P28635 23-271): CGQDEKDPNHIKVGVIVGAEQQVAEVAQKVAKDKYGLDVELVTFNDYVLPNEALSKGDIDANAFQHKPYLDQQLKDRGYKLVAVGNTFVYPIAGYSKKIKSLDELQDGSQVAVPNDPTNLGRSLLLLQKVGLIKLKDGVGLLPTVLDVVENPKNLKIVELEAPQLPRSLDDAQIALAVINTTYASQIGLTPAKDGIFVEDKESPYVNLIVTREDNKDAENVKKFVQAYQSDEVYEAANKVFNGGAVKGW
Sequence of high affinity L-methionine transporter (metD) (P30750 whole entry, further chain): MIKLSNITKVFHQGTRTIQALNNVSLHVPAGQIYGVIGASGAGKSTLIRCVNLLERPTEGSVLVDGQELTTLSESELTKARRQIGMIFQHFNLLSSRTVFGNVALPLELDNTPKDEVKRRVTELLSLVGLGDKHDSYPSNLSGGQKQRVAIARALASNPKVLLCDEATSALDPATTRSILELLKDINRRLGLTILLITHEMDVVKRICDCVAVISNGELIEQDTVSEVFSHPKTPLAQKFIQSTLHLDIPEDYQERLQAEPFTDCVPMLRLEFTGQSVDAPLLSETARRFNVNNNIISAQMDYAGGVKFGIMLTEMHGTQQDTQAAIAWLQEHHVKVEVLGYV
Sequence of high affinity L-methionine transporter (metD) (P31547 whole entry, further chain): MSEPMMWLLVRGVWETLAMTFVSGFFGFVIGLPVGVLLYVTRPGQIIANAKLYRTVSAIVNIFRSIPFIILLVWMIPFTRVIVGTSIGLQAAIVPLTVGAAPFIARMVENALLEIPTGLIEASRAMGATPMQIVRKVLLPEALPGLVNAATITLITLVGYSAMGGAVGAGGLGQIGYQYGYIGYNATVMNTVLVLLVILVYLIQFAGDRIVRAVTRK
Sequence of Rickettsia high-affinity SAMe transport system (Q9ZE70 whole entry, looked up): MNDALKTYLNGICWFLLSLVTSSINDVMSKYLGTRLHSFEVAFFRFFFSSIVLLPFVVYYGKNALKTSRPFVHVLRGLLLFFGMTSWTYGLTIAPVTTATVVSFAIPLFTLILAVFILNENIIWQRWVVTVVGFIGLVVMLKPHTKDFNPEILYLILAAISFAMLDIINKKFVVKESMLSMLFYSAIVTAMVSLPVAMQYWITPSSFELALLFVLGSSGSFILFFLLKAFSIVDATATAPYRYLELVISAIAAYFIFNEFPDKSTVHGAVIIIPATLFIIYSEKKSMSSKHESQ

Consider `C[S+](CC[C@H](N)C(=O)O)C[C@H]1O[C@@H](n2cnc3c(N)ncnc32)[C@H](O)[C@@H]1O` (some centres unmarked) [SAMe, S-adenosylmethionine], for which the KT in series [1] was 2 to 8 µM; in [2], 3.3 µM; in [3] it was 4.5 µM; in series [4] it was 8.9 µM. Moreover, the “activity retained relative to absence of inhibitor” value in series [5] (OAHS as substrate, 5 mM inhibitor) is given as “approximately 72%”; in series [5] (setting [14]), ~21%; in [5] (OSHS as substrate, 5 mM inhibitor), 86%; in [5] (OSHS as substrate, 10 mM inhibitor), 19%.
In the case of `CSCC[C@H](N)C(=O)O` [methionine], in [6], the solubility worked out at 375000 µM (≈ 56 mg/mL). The solubility in water in [7] was 5.6 g/100 mL. In addition, the Km is 0.1 to 0.13 µM in [8] and 20 to 40 µM in [9]. For the same molecule, in series [5] (1 mM methionine), the “inhibition of MetY” value is “Some inhibition”. Moreover, the “activity retained relative to absence of inhibitor” value in series [5] (setting [14]) is “about 50%”; in series [5] (OAHS as substrate, 50 mM inhibitor) it was ~19%; in series [5] (OAHS as substrate, 100 mM inhibitor) it was ~9%; in [5] (OSHS as substrate, 50 mM inhibitor), 53%; in series [5] (OSHS as substrate, 100 mM inhibitor) it was 31%.

B1: Val 185 Glu: E. coli MetK mutant, C-terminal His tagged, purified (protein, UniProt P0A817 2-384, looked up, variant V185E)
S-adenosylmethionine synthase: AKHLFTSESVSEGHPDKIADQISDAVLDAILEQDPKARVACETYVKTGMVLVGGEITTSAWVDIEEITRNTVREIGYVHSDMGFDANSCAVLSAIGKQSPDINQGVDRADPLEQGAGDQGLMFGYATNETDVLMPAPITYAHRLVQRQAEVRKNGTLPWLRPDAKSQVTFQYDDGKIVGIDAVELSTQHSEEIDQKSLQEAVMEEIIKPILPAEWLTSATKFFINPTGRFVIGGPMGDCGLTGRKIIVDTYGGMARHGGGAFSGKDPSKVDRSAAYAARYVAKNIVAAGLADRCEIQVSYAIGVAEPTSIMVETFGTEKVPSEQLTLLVREFFDLRPYGLIQMLDLLHPIYKETAAYGHFGREHFPWEKTDKAQLLRDAAGLK
modifications: C-terminal His tag
notes: E. coli MetK mutant, C-terminal His tagged, purified
With B1, the “Activity (CPM SAMe/ μg purified protein/min)” value in series [10] is 4.9 CPM SAMe/ μg purified protein/min. In addition, in series [11], the “Expected Effect: increase in excreted Met over control” value is recorded as 6.4X increase in.

B2: Asp 16 Asn (protein, UniProt P0A817 2-384, looked up, variant D16N)
S-adenosylmethionine synthase: AKHLFTSESVSEGHPNKIADQISDAVLDAILEQDPKARVACETYVKTGMVLVGGEITTSAWVDIEEITRNTVREIGYVHSDMGFDANSCAVLSAIGKQSPDINQGVDRADPLEQGAGDQGLMFGYATNETDVLMPAPITYAHRLVQRQAEVRKNGTLPWLRPDAKSQVTFQYDDGKIVGIDAVVLSTQHSEEIDQKSLQEAVMEEIIKPILPAEWLTSATKFFINPTGRFVIGGPMGDCGLTGRKIIVDTYGGMARHGGGAFSGKDPSKVDRSAAYAARYVAKNIVAAGLADRCEIQVSYAIGVAEPTSIMVETFGTEKVPSEQLTLLVREFFDLRPYGLIQMLDLLHPIYKETAAYGHFGREHFPWEKTDKAQLLRDAAGLK
As to B2, the “Activity (CPM SAMe/ μg purified protein/min)” value in series [10] is 2.5 CPM SAMe/ μg purified protein/min. The “Expected Effect on SAMe synth: kcat reduction” value in [12] is “kcat reduction of ~ 103 fold”.

B3: O-succinylsulfhydrylase: O-succinylsulfhydrylase (EC 4.2.99.-) codified by metZ from Pseudomonas aeruginosa (protein, UniProt P55218 1-403, looked up)
O-succinylhomoserine …: MTQDWDAGRLDSDLEGAAFDTLAVRAGQRRTPEGEHGEALFTTSSYVFRTAADAAARFAGEVPGNVYSRYTNPTVRTFEERIAALEGAEQAVATASGMSAILALVMSLCSSGDHVLVSRSVFGSTISLFDKYFKRFGIQVDYPPLSDLAAWEAACKPNTKLFFVESPSNPLAELVDIAALAEIAHAKGALLAVDNCFCTPALQQPLKLGADVVIHSATKYIDGQGRGMGGVVAGRGEQMKEVVGFLRTAGPTLSPFNAWLFLKGLETLRIRMQAHSASALALAEWLERQPGIERVYYAGLPSHPQHELARRQQSGFGAVVSFDVKGGRDAAWRFIDATRMVSITTNLGDTKTTIAHPATTSHGRLSPEDRARAGIGDSLIRVAVGLEDLDDLKADMARGLAAL
Regarding B3, the sulfide affinity entry in series [13] is “low sulfide affinity”.

The term solubility denotes how much of the substance goes into solution per volume. Higher therefore signals much dissolved substance. Usually Km stands for the substrate concentration at which the rate is half of its maximum.
